Results from US20020173452A1, “Cytostatic-glycoconjugates having specifically cleavable linking units” (priority 2000, published 2002).
*1 amine or outer side, *2 acyl side, *3 side chain or, on linkers, in order; H or OH if unused. Where a SMILES comes first, the peptide text is derived from it. [ ]: non-standard residue; d: D form. The star is where a group is joined. ξ: configuration not given here. Camptothecin(20R,20-O) = CC[C@]1(O*)C(=O)OCc2c1cc1n(c2=O)Cc2cc3ccccc3nc2-1; X6 = CO[C@@H]1[C@H](O)[C@H](Oc2ccc(NC(=S)*)cc2)O[C@H](C)[C@@H]1O; X1 = CO[C@H]1[C@@H](O)[C@@H](C)OC(Oc2ccc(NC(=S)*)cc2)[C@H]1O; X2 = CC[C@@]1(O*)C(=O)OCc2c1cc1n(c2=O)Cc2cc3ccccc3nc2-1; X3 = CO[C@H]1[C@@H](O)[C@@H](C)OC(Oc2ccc(N*)cc2)[C@H]1O; CO = O=C([*:1])[*:2]; ξP = O=C(O)C1CCCN1

Columns and labels:
[1] = test system: hemopoietic stem cells (bone marrow cells); assay: cells; assay type: cell-based, mice; conditions: murine bone marrow cells, recombinant murine GM-CSF, 7 days
Experimental: C. CSF-Induced Proliferation of Hemopoietic Stem Cells
Bone marrow cells are flushed out of the femur of mice. 105 cells are incubated in McCoy 5A medium (0.3% agar) together with recombinant murine GM-CSF (Genzyme; parent cell colony formation) and the substances (10^−4 to 100 μg/ml) at 37° C. and 7% CO2. 7 days later, the colonies ([…]) and clusters (17-50 cells) are counted.

[2] = test system: subcutaneously growing melanoma xenograft model (MEXF 989); assay: In-vivo inhibition of tumour growth using a nude mouse model; design: species or system athymic nude mice (NMRI nu/nu strain); conditions: for inhibition of the tumor growth (in words): subcutaneously growing melanoma xenograft MEXF 989, nude mice; for optimal T/C in % / lethality: MEXF 989 xenograft, nude mice, i.v. or i.p., day 1-3 and day 15-17; for lethality: dead/5 mice
Text: B. In-Vivo Inhibition or Tumour Growth Using a Nude Mouse Model
In all in-vivo experiments for investigating the inhibition of tumour growth, athymic nude mice (NMRI nu/nu strain) were used. The tumour was developed by serial passage in nude mice. The human origin of the tumour was confirmed by isoenzymatic and immunohistochemical methods.
The tumour was implanted subcutaneously in both flanks of nu/nu nude mice 6 to 8 weeks old. The treatment was started, depending on the doubling time, as soon as the tumours had reached a diameter of 5-7 mm. The mice were assigned to the treatment group or the control group (5 mice per group having 8-10 assessable tumours) by randomization. The individual tumours of the control group all grew progressively.
The size of the tumours was measured in two dimensions by means of a slide gauge. The tumour volume, which correlated well with the cell count, was then used for all assessments. The volume was calculated according to the formula “length×breadth×breadth/2” ([a×b^2]/2, a and b represent two diameters arranged at right angles).
The values of the relative tumour volume (RTV) were calculated for each individual tumour by dividing the tumour size on day×with the tumour size on day 0 (at the time of randomization). The average values of the RTV were then used for the further assessment.
The inhibition of the increase of the tumour volume (tumour volume of the test group/control group, T/C, in percent) was the final measured value.
The compounds can be administered with a daily or an intermittent therapy schedule through a couple of days either by intraperitoneal, intravenious, oral or subcutaneous route.
The compounds are dissolved in water or in PEG400/water 2:1 and are administered intravenously or intraperitoneally from day 1-3 and day 15-17.

[3] = test system: SW 480 human large intestine cell line; assay: Growth inhibition test (MTT) for cytotoxic properties on tumour cell lines; assay type: cell-based; conditions: SW480 cells, growth checked after day 6, read-out: IC50 of the cytotoxic action on tumour cell lines, SW480
Experimental: (§1) A: Growth Inhibition Test for the Determination of the Cytotoxic Properties on Various Tumour Cell Lines
(§2) The human large intestine cell lines SW 480 and HT29 (ATCC No. CCL 228 and HTB38 and the mouse melanoma cell line B16F10 (CRL 6475) were grown to confluence in Roux dishes in RPMI 1640 medium with addition of 10% FCS. They were then trypsinized and taken up in RPMI plus 10% FCS to a cell count of 50,000 cells or, for B16F10, 20,000 cells per ml. 100 μl of cell suspension/well were added to a 96 microwell plate and incubated at 37° C. for 1 day in a CO2 incubator. A further 100 μl of RPMI medium and 1 μl of DMSO were then added with the test substances. The growth was checked after day 6. For this, 25 μl of MTT solution (3-(4,5-dimethylthiazol-2-yl)-2,5-diphenyltetrazolium bromide) was added to each well at a starting concentration of 5 mg/ml of H2O. The plate was incubated at 37° C. for 5 hours in a CO2 incubator. The medium was then aspirated and 100 μl of 1-propanol/well were added. After shaking with 100 μl of H2O for 30 min, the extinction was measured at 595 nm using a Multiplate Reader (BIO-RAD 3550-UV).
(§3) The cytostatic action is indicated in Table 1 as an IC50 value, in each case for the individual cell lines.

[4] = test system: HT29 human large intestine cell line; assay: as above; assay type: cell-based; conditions: HT29 cells, growth checked after day 6, read-out: IC50 of the cytotoxic action on tumour cell lines, HT29
Experimental: as §1, §2, §3

[5] = test system: B16F10 mouse melanoma cell line; assay: as above; assay type: cell-based; conditions: B16F10 cells, growth checked after day 6, read-out: IC50 of the cytotoxic action on tumour cell lines, B16F10
Experimental: as §1, §2, §3

[6] = target: T1, MMP-2 (Homo sapiens, UniProt P08253); assay: Cleavage of conjugates by MMP-2 in buffer; assay type: biochemical; conditions: after 6 h incubation with MMP-2 in buffer pH 7.5, HPLC peak areas
T1 construct: purchased Calbiochem
T1 sequence (P08253 110-660): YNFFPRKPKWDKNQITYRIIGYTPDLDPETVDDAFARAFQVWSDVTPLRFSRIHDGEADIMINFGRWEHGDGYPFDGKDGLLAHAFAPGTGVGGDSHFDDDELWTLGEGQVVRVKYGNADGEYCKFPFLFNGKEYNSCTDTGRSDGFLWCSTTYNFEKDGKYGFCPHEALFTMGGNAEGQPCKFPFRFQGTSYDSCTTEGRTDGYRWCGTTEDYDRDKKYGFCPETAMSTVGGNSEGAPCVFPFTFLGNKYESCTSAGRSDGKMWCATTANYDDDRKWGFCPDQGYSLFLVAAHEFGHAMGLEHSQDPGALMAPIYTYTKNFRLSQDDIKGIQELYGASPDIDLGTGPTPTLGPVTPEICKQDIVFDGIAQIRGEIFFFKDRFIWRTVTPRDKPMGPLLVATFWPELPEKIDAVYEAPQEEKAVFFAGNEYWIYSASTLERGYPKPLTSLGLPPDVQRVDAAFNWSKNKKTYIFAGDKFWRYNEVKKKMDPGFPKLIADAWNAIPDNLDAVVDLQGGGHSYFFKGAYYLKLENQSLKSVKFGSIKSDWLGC
Experimental: D. Cleavage of Conjugates by MMP-2 in Buffer
2.5 μl MMP-2 (Calbiochem) with a specific activity of 60μU/μl are incubated with 10 nM of the conjugates exemplified in the example series 1-25 in 1 ml of a medium consisting of 50 mM Tris-HCl pH 7.5, 0.2 M NaCl, 10 mM CaCl2*2H2O and 0,05% Brij 35. The enzyme mediated cleavage of the conjugates is detected by HPLC analysis using an RP18 (5 μM) column with 70% HClO4 /water (0.4% v/v) as eluent A and acetonitrile as eluent B (UV detection at […]). The efficiency of the cleavage is assessed by comparing the peak areas of the intact conjugate (starting material) and the cleavage product (tripeptide conjugate of camptothecin) after 6 h and 24 h incubation (cf, Table 4).

CC[C@@]1(O)C(=O)OCc2c1cc1n(c2=O)Cc2cc3ccccc3nc2-1 [Camptothecin, 20(S)-Camptothecin, reference compound]
IC50 ([1]; Mus musculus, Bone marrow cell, 168 h, read-out: IC50 of inhibition of colony counts of hemopoietic stem cells): 0.00025 µg/mL

CC[C@@]1(OC(=O)[C@H](NC(=O)[C@@H](Cc2c[nH]cn2)NC(=O)CNC(=O)[C@H](CC(C)C)NC(=O)[C@H]2CCCN2C(=S)Nc2ccc(OC3O[C@H](C)[C@H](O)[C@H](OC)[C@@H]3O)cc2)C(C)C)C(=O)OCc2c1cc1n(c2=O)Cc2cc3ccccc3nc2-1.Cl (some centres unmarked) [Example 2]
inhibition of the tumor growth (in words) [2]: effected inhibitions of the tumor growth | IC50 [3]: 150 nM | IC50 [4]: 70 nM

CC[C@@]1(OC(=O)[C@H](NC(=O)[C@@H](Cc2c[nH]cn2)NC(=O)[C@@H](CC(C)C)NC(=O)CNC(=O)[C@H](CC(C)C)NC(=O)[C@H]2CCCN2C(=S)Nc2ccc(OC3O[C@H](C)[C@H](O)[C@H](OC)[C@@H]3O)cc2)C(C)C)C(=O)OCc2c1cc1n(c2=O)Cc2cc3ccccc3nc2-1.Cl (stereo partly drawn) [Example 3] (X1-[dP]LG[dL][dH][dV]-X2)
optimal T/C in % ([2]; 8 mg/kg/day): 19.1% | lethality ([2]; 8 mg/kg/day): 1/5 | IC50 [3]: 100 nM | IC50 [5]: 150 nM | IC50 [4]: 50 nM | MMP-2 mediated cleavage, peak area product/educt × 100 [6]: 609 | IC50 of inhibition of colony counts of hemopoietic stem cells [1]: 0.04 µg/mL

CC[C@@]1(OC(=O)[C@H](NC(=O)[C@@H](Cc2c[nH]cn2)NC(=O)[C@@H](CC(C)C)NC(=O)CNC(=O)[C@H](CC(C)C)NC(=O)[C@H]2CCCN2C(=O)Nc2ccc(OC3O[C@H](C)[C@H](O)[C@H](OC)[C@@H]3O)cc2)C(C)C)C(=O)OCc2c1cc1n(c2=O)Cc2cc3ccccc3nc2-1.Cl (stereo partly drawn) [Example 4] ({X3-CO}-[dP]LG[dL][dH][dV]-X2)
IC50 [3]: 50 nM | IC50 [5]: 150 nM | IC50 [4]: 40 nM | MMP-2 mediated cleavage, peak area product/educt × 100 [6]: 700

CC[C@@]1(OC(=O)[C@H](NC(=O)[C@@H](CC(N)=O)NC(=O)[C@@H](CC(C)C)NC(=O)CNC(=O)[C@H](CC(C)C)NC(=O)[C@H]2CCCN2C(=S)Nc2ccc(OC3O[C@H](C)[C@H](O)[C@H](OC)[C@@H]3O)cc2)C(C)C)C(=O)OCc2c1cc1n(c2=O)Cc2cc3ccccc3nc2-1 (stereo partly drawn) [Example 5] (X1-[dP]LG[dL][dN][dV]-X2)
optimal T/C in % ([2]; 6 mg/kg/day): 19.1% | lethality ([2]; 6 mg/kg/day): 1/5 | inhibition of the tumor growth (in words) [2]: effected inhibitions of the tumor growth | IC50 [3]: 80 nM | IC50 [5]: 300 nM | IC50 [4]: 60 nM | MMP-2 mediated cleavage, peak area product/educt × 100 [6]: 166

CC[C@@]1(OC(=O)[C@H](NC(=O)[C@@H](CC(N)=O)NC(=O)[C@@H](CC(C)C)NC(=O)CNC(=O)[C@H](CC(C)C)NC(=O)[C@H]2CCCN2C(=O)Nc2ccc(OC3O[C@H](C)[C@H](O)[C@H](OC)[C@@H]3O)cc2)C(C)C)C(=O)OCc2c1cc1n(c2=O)Cc2cc3ccccc3nc2-1 (stereo partly drawn) [Example 6] ({X3-CO}-[dP]LG[dL][dN][dV]-X2)
IC50 [3]: 60 nM | IC50 [5]: 300 nM | IC50 [4]: 50 nM | MMP-2 mediated cleavage, peak area product/educt × 100 [6]: 80

CC[C@@]1(OC(=O)[C@H](NC(=O)[C@@H](CC(=O)O)NC(=O)[C@@H](CC(C)C)NC(=O)CNC(=O)[C@H](CC(C)C)NC(=O)[C@H]2CCCN2C(=S)Nc2ccc(OC3O[C@H](C)[C@H](O)[C@H](OC)[C@@H]3O)cc2)C(C)C)C(=O)OCc2c1cc1n(c2=O)Cc2cc3ccccc3nc2-1 (stereo partly drawn) [Example 7] (X1-[dP]LG[dL][dD][dV]-X2)
IC50 [3]: 200 nM | IC50 [5]: 600 nM | IC50 [4]: 100 nM | MMP-2 mediated cleavage, peak area product/educt × 100 [6]: 9

CC[C@@]1(OC(=O)[C@H](NC(=O)[C@@H](Cc2c[nH]c3ccccc23)NC(=O)[C@@H](CC(C)C)NC(=O)CNC(=O)[C@H](CC(C)C)NC(=O)[C@H]2CCCN2C(=S)Nc2ccc(OC3O[C@H](C)[C@H](O)[C@H](OC)[C@@H]3O)cc2)C(C)C)C(=O)OCc2c1cc1n(c2=O)Cc2cc3ccccc3nc2-1 (stereo partly drawn) [Example 9] (X1-[dP]LG[dL][dW][dV]-X2)
IC50 [3]: 400 nM | IC50 [5]: 1000 nM | IC50 [4]: 300 nM | MMP-2 mediated cleavage, peak area product/educt × 100 [6]: 64

CC[C@@]1(OC(=O)[C@H](NC(=O)[C@@H](Cc2c[nH]cn2)NC(=O)[C@@H](CC(C)C)NC(=O)CNC(=O)[C@H](CC(C)C)NC(=O)[C@H]2CCCN2C(=S)Nc2ccc(OC3O[C@H](C)[C@H](O)[C@H](OC)[C@@H]3O)cc2)C(C)C)C(=O)OCc2c1cc1n(c2=O)Cc2cc3ccccc3nc2-1.Cl (stereo partly drawn) [Example 12] (X1-[dP]LG[dL][dH][dV]-X2)
IC50 [3]: 150 nM | IC50 [5]: 300 nM | IC50 [4]: 100 nM | IC50 of inhibition of colony counts of hemopoietic stem cells [1]: 0.03 µg/mL

CC[C@]1(OC(=O)[C@H](NC(=O)[C@@H](CC(N)=O)NC(=O)[C@@H](CC(C)C)NC(=O)CNC(=O)[C@H](CC(C)C)NC(=O)C2CCCN2C(=O)CNC(=S)Nc2ccc(O[C@@H]3O[C@H](C)[C@H](O)[C@H](OC)[C@@H]3O)cc2)C(C)C)C(=O)OCc2c1cc1n(c2=O)Cc2cc3ccccc3nc2-1 (stereo partly drawn) [Example 27] (X6-G[ξP]LG[dL][dN][dV]-{Camptothecin(20R,20-O)})
IC50 [3]: 25 nM | IC50 [5]: 50 nM | IC50 [4]: 15 nM
